# Columns and labels:
# [1] = Analgesic activity (technique of Siegmund E. et al.); assay type: in vivo; conditions: po, read-out: DE50 mg/kg p.o.
# Excerpt: II a notamment été mis en évidence, par l'étude de plusieurs produits que les nouveaux dérivés de thiopyranopyrrole manifestent une activité analgésique dans la technique de Siegmund E. et coll., Proc. Soc. Exp. Biol. Med., 95, 729 (1957).
# [2] = system: septide (agoniste de la substance P); test: Inhibition of septide-induced increase in capillary permeability (technique of A. Saria et al. adapted to the mouse); assay type: in vivo, souris; conditions: sc, capillary permeability increase caused by septide, read-out: DE50 mg/kg s.c.
# Excerpt: L'étude de plusieurs dérivés de thiopyranopyrrole de formule générale (I) dans la technique de A. Saria et coll., Arch. Pharmacol.,324, 212-218 (1983) adaptée à la souris a permis de mettre en évidence un effet inhibiteur de l'augmentation de la perméabilité capillaire entraîné par le septide (agoniste de la substance P, ce qui témoigne d'une activité anti-inflammatoire : […]
# [3] = system: substance P; test: Antagonism of substance P-induced hypotension (technique of C.A. Maggi et al.); assay type: in vivo; conditions: rat; 1 mg/kg i.v./mn for 5 mn; hypotension induced by i.v. injection of 250 mg/kg of substance P
# Description: L'injection de substance P chez l'animal provoque une hypotension. Les produits étudiés dans la technique de C.A. Maggi et coll., J. Auton. Pharmac., 7, 11-32 (1987) manifestent un effet antagoniste chez le rat vis-à-vis de cette hypotension. Notamment les produits administrés à la dose de 1 mg/kg i.v./mn, pendant 5 mn, provoquent un antagonisme de l'hypotension induite par une injection i.v. de […] de substance P.
Compound,ED50 [1] [mg/kg],ED50 [2] [mg/kg],% d'inhibition de l'hypotension [3] [%]
"CN(C)CCCOc1ccccc1CC(=O)N1C[C@@H]2[C@H](C1)[S@+]([O-])CCC2(c1ccccc1)c1ccccc1 (racemic) [Exemple 7, {[(diméthylamino-3 propoxy-2)phényl]acétyl}-6 diphényl-4,4 oxyde-1 perhydrothiopyrano [2,3-c]pyrrole-(1RS,4aRS,7aRS)]",3,,
"COc1ccccc1[C@H](C)C(=O)N1C[C@@H]2[C@H](C1)[S@+]([O-])CCC2(c1ccccc1)c1ccccc1 (single isomer, unassigned) [Exemple 10, [(-)-(méthoxy-2 phényl)-2 propionyl-(S) ] -6 diphényl-4,4 oxyde-1 erhydrothiopyrano[2,3-c]pyrrole-(1R*, 4aR*, 7aR*)]",1.7,< 0.1,100
"CN(C)CCCOc1ccccc1CC(=O)N1C[C@@H]2[C@H](C1)[S@+]([O-])CCC2(c1ccccc1)c1ccccc1 (single isomer, unassigned) [Exemple 8, (-)-{[(diméthylamino-3 propoxy-2)phényl]-2 acétyl}-6 diphényl-4,4 oxyde-1 perhydrothiopyrano [2,3-c]pyrrole-(1R*,4aR*,7aR*)]",,0.05,100
